The values below come from ChEMBL document CHEMBL1153977, “Fluorinated non-imidazole histamine H3 receptor antagonists” (Bioorg Med Chem Lett, 2009).

One assay deals with Histamine H3 receptor (Homo sapiens, UniProt Q9Y5N1). The assay can be described thus: Displacement of [125I]iodoproxyfan from human histamine H3 receptor expressed in […] cells. Format: cell-based, HEK293. In general terms: Loss of bound radioactivity is the signal in a displacement assay; it reports binding, not function.
Another assay concerns Mus musculus. The assay can be described thus: In vivo histamine H3 receptor potency in po dosed Swiss mouse assessed as N'-methylhistamine level. Format: functional.

Where only a bound is given, the exact number is not on record here.

In general, Ki refers to a measure of affinity in units of concentration, obtained from inhibition or displacement. Higher therefore signals weaker binding. A word on the ED50: it is the midpoint of the dose-response relation.

Chain of Histamine H3 receptor (Q9Y5N1 whole entry): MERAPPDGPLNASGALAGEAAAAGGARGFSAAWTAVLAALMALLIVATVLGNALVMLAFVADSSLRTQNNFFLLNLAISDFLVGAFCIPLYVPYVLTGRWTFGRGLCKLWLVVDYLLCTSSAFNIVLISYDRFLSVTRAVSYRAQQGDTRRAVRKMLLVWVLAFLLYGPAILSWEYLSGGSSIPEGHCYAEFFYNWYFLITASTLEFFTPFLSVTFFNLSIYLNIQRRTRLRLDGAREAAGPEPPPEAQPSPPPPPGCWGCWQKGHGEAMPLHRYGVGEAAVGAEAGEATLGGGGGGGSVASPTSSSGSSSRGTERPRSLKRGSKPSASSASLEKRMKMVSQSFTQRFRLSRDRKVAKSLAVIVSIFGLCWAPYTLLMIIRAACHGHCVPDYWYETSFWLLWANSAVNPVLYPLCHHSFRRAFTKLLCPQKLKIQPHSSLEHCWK

For the compound `FCCc1ccc(OCCCN2CCCCC2)cc1`, affinity on Histamine H3 receptor was put at a Ki of 43 nM.

Consider `FCc1ccc(OCCCN2CCCCC2)cc1`, for which, at Histamine H3 receptor, the affinity, expressed as Ki, was 17.3 nM. This Ki lies about 2.5-fold lower than the previous one.

The compound `BrC1CCN(Cc2ccc(OCCCN3CCCCC3)cc2)CC1` returned a Ki at Histamine H3 receptor of 0.2 nM.

Compound `N#Cc1ccc(OCCCN2CCC(F)(F)CC2)cc1` returned an inhibitory constant (Ki) at Histamine H3 receptor greater than 1000 nM.

For `c1cc(CN2CCCCC2)ccc1COc1ccc(CN2CCCCC2)cc1`, the median effective dose (ED50) in the assay with Mus musculus was 9.6 mg/kg.

For `FC1CCN(Cc2ccc(OCCCN3CCCC3)cc2)CC1`, the median effective dose (ED50) in the assay with Mus musculus was 12 mg/kg. The compound also displayed a Ki at Histamine H3 receptor of 0.26 nM.

In the case of `c1cc(OCCCN2CCCCC2)ccc1CN1CCCCC1` [JNJ-5207852], the median effective dose (ED50) with Mus musculus came out at 0.12 mg/kg.

With `FC1CCN(Cc2ccc(OCCCN3CCCCC3)cc2)CC1`, the ED50 in the assay with Mus musculus came out at 7.4 mg/kg. The same compound returned an inhibition constant Ki at Histamine H3 receptor of 0.094 nM.

Turning to `F[C@H]1CCN(Cc2ccc(OCCCN3CCCCC3)cc2)C1`, the ED50 in the assay with Mus musculus was 3.9 mg/kg. The compound also came in with an inhibition constant (Ki) at Histamine H3 receptor of 0.28 nM.

Turning to `CS(=O)(=O)OC1CCN(Cc2ccc(OCCCN3CCCCC3)cc2)CC1`, the Ki on Histamine H3 receptor was 0.84 nM.

Take `ClC1CCN(Cc2ccc(OCCCN3CCCCC3)cc2)CC1`: on Histamine H3 receptor, the Ki was 0.068 nM.

Regarding `Clc1ccc(CCCOCCCN2CCCCC2)cc1` [PITOLISANT], the median effective dose (ED50) in the assay with Mus musculus came out at 1.5 mg/kg.

On Histamine H3 receptor, `FC1CCN(CCCOc2ccc(CN3CCCC3)cc2)CC1` showed an inhibition constant (Ki) of 0.99 nM.

Regarding `F[C@@H]1CCN(Cc2ccc(OCCCN3CCCC3)cc2)C1`, at Histamine H3 receptor, the inhibition constant (Ki) came out at 0.31 nM.

Regarding `N#Cc1ccc(OCCCN2CCCCC2)cc1`, the median effective dose (ED50) in the assay on Mus musculus was 0.2 mg/kg. The compound also registered a Ki at Histamine H3 receptor of 11 nM.

With `FC1(F)CCN(Cc2ccc(OCCCN3CCCCC3)cc2)CC1`, the ED50 in the assay on Mus musculus was 0.4 mg/kg. This compound also displayed a Ki on Histamine H3 receptor of 0.24 nM.

`F[C@@H]1CCN(Cc2ccc(OCCCN3CCCCC3)cc2)C1` gave a Ki on Histamine H3 receptor of 0.28 nM.
